Reference: patent US20130204033A1, “ANTIPROLIFERATIVE COMPOUNDS, CONJUGATES THEREOF, METHODS THEREFOR, AND USES THEREOF” (Medarex, Inc., priority 2009, published 2013)
Read-outs that look alike come from different tables or passages of the source.

Assays:
Format in all cases: cell-based, human
[1] = tested on: NCI-H460; assay: 3H thymidine proliferation assay, NCI-H460; settings: 3H thymidine method, 72 h incubation, read-out: EC50, NCI-H460
Experimental: (§1) This example generally describes the procedures used to assay the antiproliferative activity of compounds of this invention or their conjugates. Human tumor cell lines were obtained from the American Type Culture Collection (ATCC), P.O. Box 1549, Manassas, Va. 20108, USA, and cultured according to instruction from the ATCC. Cells were seeded at 1.0×10^3 or 1.0×10^4 cells/well in 96-well plates for 3 h for ATP assays or ^3H thymidine assays, respectively. 1:3 serial dilutions of free (unconjugated) compounds or their conjugates were added to the wells. Plates were allowed to incubate for 24 to 72 h. The ^3H thymidine plates were pulsed with 1.0 μCi of ^3H-thymidine per well for the last 24 hours of the total incubation period, harvested, and read on a Top Count Scintillation Counter (Packard Instruments, Meriden, Conn.). ATP levels in the ATP plates were measured using the […]-GLO® Luminescent Cell Viability kit following the manufacturer's manual and read on a GLOMAX® 20/20 luminometer (both from Promega, Madison, Wis., USA). The EC50 values—the concentration at which an agent inhibits or reduces cell proliferation by 50% —were determined using PRISM™ software, version 4.0 (GraphPad Software, La Jolla, Calif., USA).
(§2) Using the ^3H thymidine or the ATP luminescence assay, or both, the activities of compounds of this invention were assayed against the following cancer cell lines: HCT-15 (colorectal cancer, multi-drug resistant (MDR)); Hep3B (liver cancer); LNCaP (prostate cancer, androgen receptor positive (AR^+)); MDA-MB-231 (breast cancer, estrogen receptor, progesterone receptor, and Her2 negative (triple negative)); A2058 (melanoma); U-87 MG (glioblastoma); NCI-H460 (NSCLC); A549 (NSCLC); HPAC (pancreatic cancer, primary); PC3 (prostate cancer, AR); BT474 (breast cancer, Her2 highly positive (Her2hi)); SKOV3 (ovarian cancer, Her2hi); 786-O (renal cancer); UO-31 (renal cancer, MDR); NCI-H740 (SCLC); DMS53 (SCLC); SK-BR3 (breast cancer, Her2hi); ZR-75 (breast cancer, estrogen receptor positive); OVCAR3 (ovarian cancer); HL-60 (APL); OVCAR8/Adr (ovarian cancer, MDR); CEM-Cl (ALL); Nomo-1 (AML); RPMI-8226 (MM)); Raji (lymphoma); SW-480 (colorectal cancer, metastatic); SW-620 (colorectal cancer); and H226 (lung cancer). (Not all compounds were assayed against all cell lines.)
(§3) Table 2 provides the data for proliferation assays using the ^3H thymidine method, with an incubation period of 72 h.

[2] = tested on: H740; assay: 3H thymidine proliferation assay, H740; settings: 3H thymidine method, 72 h incubation, read-out: EC50, H740
Experimental: as §1, §2, §3

[3] = tested on: OVCAR3; assay: 3H thymidine proliferation assay, OVCAR3; settings: 3H thymidine method, 72 h incubation, read-out: EC50, OVCAR3
Experimental: as §1, §2, §3

[4] = tested on: Nomo-1; assay: 3H thymidine proliferation assay, Nomo-1; settings: 3H thymidine method, 72 h incubation, read-out: EC50, Nomo-1
Experimental: as §1, §2, §3

[5] = tested on: Raji; assay: 3H thymidine proliferation assay, Raji; settings: 3H thymidine method, 72 h incubation, read-out: EC50, Raji
Experimental: as §1, §2, §3

[6] = tested on: HCT-15; assay: ATP luminescence proliferation assay, HCT-15; settings: ATP luminescence
Experimental: as §1, §2
(§4) Table 3 provides the data for the ATP luminescence proliferation assays, with an incubation period of 48, 72, or 96 h, as noted.

[7] = tested on: Hep3B; assay: ATP luminescence proliferation assay, Hep3B; settings: ATP luminescence, 48 h incubation, read-out: EC50 Hep3B (48 h)
Experimental: as §1, §2, §4

[8] = tested on: LNCaP; assay: ATP luminescence proliferation assay, LNCaP; settings: ATP luminescence, 72 h incubation, read-out: EC50 LNCaP (72 h)
Experimental: as §1, §2, §4

[9] = tested on: U-87 MG; assay: ATP luminescence proliferation assay, U-87 MG; settings: ATP luminescence, 72 h incubation, read-out: EC50 U-87 MG (72 h)
Experimental: as §1, §2, §4

[10] = tested on: A549; assay: ATP luminescence proliferation assay, A549; settings: Homo sapiens; ATP luminescence, A549, 48 h incubation; read-out: EC50 A549 (48 h)
Experimental: as §1, §2, §4

[11] = tested on: DMS53; assay: ATP luminescence proliferation assay, DMS53; settings: ATP luminescence, DMS53, 72 h incubation, read-out: EC50 DMS53 (72 h)
Experimental: as §1, §2, §4

[12] = tested on: SK-BR3; assay: ATP luminescence proliferation assay, SK-BR3; settings: ATP luminescence
Experimental: as §1, §2, §4

[13] = tested on: ZR-75; assay: ATP luminescence proliferation assay, ZR-75; settings: ATP luminescence
Experimental: as §1, §2, §4

[14] = tested on: CEM-Cl; assay: ATP luminescence proliferation assay, CEM-C1; settings: ATP luminescence
Experimental: as §1, §2, §4

[15] = tested on: NCI-H740; assay: ATP luminescence proliferation assay, NCI-H740; settings: Homo sapiens, H740, 72 h incubation
Experimental: as §1, with “Calif., USA). […]” for “Calif., USA).”
as §4

[16] = Homo sapiens, HCT-15, 72 h incubation, read-out: EC50 HCT-15 (72 h)
[17] = Homo sapiens, SK-BR-3, SK-BR3, 72 h incubation, read-out: EC50 SK-BR3 (72 h)
[18] = Homo sapiens, ZR75, ZR-75, 72 h incubation, read-out: EC50 ZR-75 (72 h)
[19] = Homo sapiens, CEM-C1, 72 h incubation, read-out: EC50 CEM-C1 (72 h)

Compound	EC50 ([1]; Homo sapiens, NCI-H460) [nM]	EC50 ([2]; Homo sapiens) [nM]	EC50 ([3]; Homo sapiens, OVCAR-3) [nM]	EC50 ([4]; Homo sapiens, NOMO-1) [nM]	EC50 ([5]; Homo sapiens, Raji) [nM]	EC50 [6, 16] [nM]	EC50 ([7]; Homo sapiens) [nM]	EC50 ([8]; Homo sapiens) [nM]	EC50 ([9]; Homo sapiens) [nM]	EC50 [10] [nM]	EC50 ([11]; Homo sapiens, DMS-53) [nM]	EC50 [12, 17] [nM]	EC50 [13, 18] [nM]	EC50 [14, 19] [nM]	other results
COc1cccc2c1C(=O)c1c(O)c3c(c(O)c1C2=O)C[C@@](O)(C(=O)CO)C[C@@H]3O[C@H]1C[C@H](N)[C@H](O)[C@H](C)O1 [Dox, doxorubicin, reference compound]	101	255	258	105	61	600	443	592	324	149	755	441	236	161	
CC[C@H](C)[C@H](NC(=O)[C@H]1CCCCN1C)C(=O)N(COC)[C@H](C[C@@H](OC)c1nc(C(=O)N[C@@H](Cc2ccccc2)C(=O)OC)cs1)C(C)C [Compound 29c]															EC50 [1]: 15 nM; EC50 [2]: 5.3 nM; EC50 [3]: 3.6 nM; EC50 [4]: 0.43 nM; EC50 [5]: 8.5 nM; EC50 ([6]; HCT-15, 48 h incubation, read-out: EC50 HCT-15 (48 h)): 200 nM; EC50 [7]: 75 nM; EC50 [8]: 255 nM; EC50 [9]: 136 nM; EC50 [11]: 17 nM; EC50 ([12]; SK-BR3, 48 h incubation, read-out: EC50 SK-BR3 (48 h)): 278 nM; EC50 ([13]; ZR-75, 48 h incubation, read-out: EC50 ZR-75 (48 h)): 136 nM; EC50 ([14]; CEM-C1, 48 h incubation, read-out: EC50 CEM-C1 (48 h)): 20 nM
Nc1ccc(C(=O)Nc2ccc3[nH]c(C(=O)N4C[C@@H](CCl)c5c4cc(O)c4ccccc54)cc3c2)cc1 [CBI, reference compound]	0.042	0.098	0.071	0.016	0.013	3.4	2.6	3.3	3.3	3	3.8	3.1	2.2	0.55	EC50 [15]: 2.2 nM
